# Where two headings read alike, the source gives them in different places.
# How the values were obtained:
# [1] = test system: S. aureus (ATCC 43300) (MRSA); test: Antibacterial assay against multi-drug resistant strains (MIC/MBC); assay type: cell-based, Staphylococcus aureus; settings: for MIC / MBC: S. aureus ATCC 43300 (MRSA)
# [2] = test system: P. aeruginosa (ATCC BAA-2111); test: as above; assay type: cell-based, Pseudomonas aeruginosa; settings: for MBC: ATCCBAA2111
# [3] = test system: MDRB (multi-drug resistant bacteria); test: MIC/MBC against the MDRB panel as a whole
# Description: Norfloxacin, a broad-spectrum antibiotic, worked as positive control.
# E. coli (ATCC BAA-196) = test: Antibacterial assay against multi-drug resistant strains (MIC/MBC); assay type: cell-based, Escherichia coli; settings: for MBC: ATCCBAA196
# S. aureus = test: MIC/MBC assay, twofold serial dilution; assay type: cell-based, Staphylococcus aureus
# Description: (§1) The results of this in vitro assay test are consistent with the findings of the antimicrobial sensitivity test. […] It has lower antimicrobial activity than ciprofloxacin against all pathogens tested.
# (§2) The MBC differs from the MIC. […]
# (§3) 4.2.2. Minimum inhibitory concentration assay
# (§4) In 96-well microtiter plates and […] of fresh bacterial culture of a single McFarland unit overnight, a double serial dilution of each compound […] in sterile standard saline were prepared to every single source well. Ciprofloxacin antibiotic (5 mg / mL - 1) and normal saline were included as standard reference in each assay. The plates were incubated at 37 0C overnight. As an indicator of bacterial growth, […] of p-iodonitrotetrazolium violet (INT) was added to each well and incubated at 37 0C for 30 […]
# (§5) min. MIC values are recorded as the lowest concentration of the extract that completely inhibited bacterial growth that is clear well. The colorless tetrazolidium salt acts as an electron accepter and is reduced to a red colored formazan product by biological activity organisms. Where bacterial growth was inhibited, the solution in the well remained clear after incubation with INT. […]
# B. subtilis = test: MIC/MBC assay, twofold serial dilution; assay type: cell-based, Bacillus subtilis
# Description: as §1, §2, §3, §4, §5
# E. coli = test: MIC/MBC assay, twofold serial dilution; assay type: cell-based, Escherichia coli; settings: for MBC: read-out: MBC
# Description: as §1, §2, §3, §4, §5
# C. albicans = test: Antifungal assay (MIC/MFC), twofold serial dilution
# [4] = Cell viability assay (MTT); assay type: cell-based; settings: human, MCF-10A cells (normal mammary gland epithelial cell line), 4-day incubation
# Description: The vitality of the investigated compounds was assessed using the MCF-10A cell line, which is a normal human mammary gland epithelial cell line. Following a 4-day incubation period on MCF-10A cells with a concentration of 50 µM for each compound being studied, the viability of the cells was assessed using the MTT test ([Hisham et al., 2022]; [Mahmoud et al., 2022]).
# 4.2.3. Cell Viability assay
# MTT assay was carried out to study the effect of compounds on mammary epithelial cells (MCF-10A). The medium in which cells were propagated contained Dulbecco's modified Eagle's medium (DMEM)/ Ham's F-12 medium (1:1) supplemented with epidermal growth factor (20 ng/mL), hydrocortisone (500 ng/mL), insulin (10 μg/mL), 2 mM glutamine and 10% fetal calf serum. After every 2-3 days, the cells were passaged using trypsin ethylenediamine tetra acetic acid (EDTA). The cells were seeded at a density of 10^4 cells mL-1 in flat-bottomed culture plates containing 96 wells each. After 24 h, medium was removed from the plates and the compounds in (in 0.1% DMSO) were added (in 200 μL medium to yield a final concentration of 0.1% v/v) to the wells of plates. A single compound was designated with four wells followed by incubation of plates for 96h at 37°C. After incubation, medium was removed completely from the plates followed by addition of MTT (0.4 mg/mL in medium) to each well and subsequent incubation of plates for 3h. MTT (along with the medium) was removed and DMSO (150μL) was added to each well of the culture plates, followed by vortexing and subsequent measurement of absorbance (at 540 nm) using microplate reader. The data are shown as percentage inhibition of proliferation in comparison with controls
# P. aeruginosa = test: MIC/MBC assay, twofold serial dilution; assay type: cell-based, Pseudomonas aeruginosa
# Description: as §1, §2, §3, §4, §5
# Gram-positive bacteria = test: MBC assay, Gram-positive bacteria together; assay type: cell-based; settings: Gram-positive bacteria (B. subtilis, S. aureus)
# Description: The MBC differs from the MIC.
# A. flavus = test: Antifungal assay (MIC/MFC), twofold serial dilution; settings: for MIC: A. flavus
# S. aureus biofilm = test: Antibiofilm assay, microtiter plate biofilm quantification
# Description: Microtiter plate assay for biofilm quantification
# The effect of sample on biofilm formation was evaluated in 96-well polystyrene
# flatbottom plates. Briefly, 300 𝜇L of inoculated fresh trypticase soy yeast broth (TSY)
# Wells containing medium and those without
# extracts and only with methanol were used as controls. Plates were incubated at 37∘C
# for 48h. After incubation, supernatant was removed and each well was washed
# thoroughly with sterile distilled water to remove free-floating cells; thereafter plates
# were air-dried for 30min, and the biofilm formed was stained during 15 min at room
# temperature with 0.1% aqueous solution of crystal violet. Following incubation, the
# excess of stain was removed by washing the plate three times with sterile distilled water.
# each well and after 15min of incubation, absorbance was measured using microplate
# reader at a wavelength of 570 nm.
# Biofilm inhibition ability of sample=(1- (absorb. sample - absorb. Blank))/
# (absorb. control - absorb. Blank))*100
# DHFR E. Coli = DHFR E. Coli (Escherichia coli, UniProt P0ABQ4); test: DHFR inhibitory assay; assay type: biochemical; settings: read-out: IC50 DHFR E. Coli
# E. coli DNA gyrase = E. coli DNA gyrase (Escherichia coli, UniProt P0AES6); test: E. coli DNA gyrase supercoiling inhibitory assay; assay type: biochemical
# Description: The fluorescence was measured with a microplate reader (BioTek Synergy H4,
# NaCl and 50 mM MgCl2) was added to terminate the enzymatic reaction. After
# Initial screening was done at 100 or 10 μM concentration
# [5] = Staphylococcus aureus, read-out: MBC
# [6] = Staphylococcus aureus, read-out: MIC
# [7] = Pseudomonas aeruginosa, ATCCBAA2111, read-out: MIC
# [8] = Escherichia coli, ATCCBAA196, read-out: MIC
# [9] = Bacillus subtilis, read-out: MBC
# [10] = Bacillus subtilis, read-out: MIC
# [11] = Escherichia coli, read-out: MIC
# [12] = Pseudomonas aeruginosa, read-out: MBC
# [13] = Pseudomonas aeruginosa, read-out: MIC
# DHFR E. Coli, sequence (P0ABQ4 whole entry): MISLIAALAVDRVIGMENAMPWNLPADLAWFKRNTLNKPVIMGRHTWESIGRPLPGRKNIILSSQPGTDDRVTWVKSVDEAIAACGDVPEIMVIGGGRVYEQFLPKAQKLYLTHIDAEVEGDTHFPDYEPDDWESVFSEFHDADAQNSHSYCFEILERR
smiles,measurement,setting,value
"CCn1cc(C(=O)O)c(=O)c2cc(F)c(N3CCNCC3)cc21 [Norfloxacin, reference compound]",MIC,[1],1.20 ± 0.10 µM
same,MBC,[1]; [5],2.8 ± 0.1 µM
same,MIC,[1]; [6],1.2 µM
same,MIC,[2],3.20 ± 0.10 µM
same,MBC,[2]; Pseudomonas aeruginosa,4.7 ± 0.2 µM
same,MIC,[2]; [7],3.2 µM
same,MBC,[3]; read-out: MBC values,2.8 to 4.7 µM
same,MIC,[3]; read-out: MIC values,1.2 to 3.2 µM
same,MIC,E. coli (ATCC BAA-196),1.60 ± 0.10 µM
same,MBC,E. coli (ATCC BAA-196); Escherichia coli,3.5 ± 0.1 µM
same,MIC,E. coli (ATCC BAA-196); [8],1.6 µM
COc1ccc2c(c1)/C(=N/NC(=O)c1cc(Cc3cc(Cl)c(O)c(C(=O)N/N=C4\C(=O)Nc5ccc(OC)cc54)c3)cc(Cl)c1O)C(=O)N2 [Compound 6e],MBC,[1]; [5],7.8 ± 0.5 µM
same,MIC,[1]; [6],5.9 ± 0.2 µM
same,MBC,S. aureus; [5],0.054 ± 0.003 µM
same,MIC,S. aureus; [6],0.035 ± 0.002 µM
same,MBC,B. subtilis; [9],0.058 ± 0.003 µM
same,MIC,B. subtilis; [10],0.037 ± 0.002 µM
same,MBC,E. coli; Escherichia coli,0.095 ± 0.006 µM
same,MIC,E. coli; [11],0.069 ± 0.004 µM
same,MFC,C. albicans; Candida albicans,50.2 ± 3 µM
same,MIC,C. albicans; Candida albicans,22.9 ± 1 µM
same,MBC,[2]; Pseudomonas aeruginosa,10.4 ± 0.7 µM
same,MIC,[2]; [7],7.15 ± 0.5 µM
same,"viability at 96 h, 50 µM",[4],92%
same,MBC,P. aeruginosa; [12],0.097 ± 0.006 µM
same,MIC,P. aeruginosa; [13],0.069 ± 0.005 µM
same,MBC,E. coli (ATCC BAA-196); Escherichia coli,9.3 ± 0.6 µM
same,MIC,E. coli (ATCC BAA-196); [8],6.25 ± 0.25 µM
same,MBC,Gram-positive bacteria,0.028 to 0.058 µM
same,MIC,A. flavus,19.50 ± 1 µM
same,MFC,A. flavus; Aspergillus flavus,40.2 ± 3 µM
same,MIC,A. flavus; Aspergillus flavus,14.5 to 19.5 µM
O=C1Nc2ccc(Cl)cc2/C1=N/NC(=O)c1cc(Cc2ccc(O)c(C(=O)N/N=C3\C(=O)Nc4ccc(Cl)cc43)c2)ccc1O [Compound 6h],Times more potent than norfloxacin (MBC),[1]; MRSA strain S. aureus ATCC 43300,around 1.2 times
same,MBC,[1],3.20 ± 0.15 µM
same,MIC,[1],1.70 ± 0.10 µM
same,MBC,[1]; [5],3.9 µM
same,MIC,[1]; [6],1.7 µM
same,Biofilm inhibition %,S. aureus biofilm; 1/2 MIC of 6h (S. aureus ATCC 43300),87.66%
same,Biofilm inhibition %,"S. aureus biofilm; 1/2 MIC of 6h (S. aureus ATCC 43300), listed as 6 h",88%
same,Biofilm inhibition %,S. aureus biofilm; 1/4 of MIC of 6h (S. aureus ATCC 43300),64.10%
same,Biofilm inhibition %,"S. aureus biofilm; 1/4 of MIC of 6h (S. aureus ATCC 43300), listed as 6 h",64%
same,Biofilm inhibition %,S. aureus biofilm; MIC of 6h (S. aureus ATCC 43300),96.95%
same,Biofilm inhibition %,"S. aureus biofilm; MIC of 6h (S. aureus ATCC 43300), listed as 6 h",97%
same,IC50,DHFR E. Coli,3800 ± 100 nM
same,MBC,S. aureus,0.028 ± 0.001 µM
same,MIC,S. aureus,0.019 ± 0.001 µM
same,Times more effective than ciprofloxacin (MIC),S. aureus,1.5 times
same,MBC,S. aureus; [5],0.028 µM
same,MIC,S. aureus; [6],0.019 µM
same,MBC,B. subtilis,0.038 ± 0.002 µM
same,MIC,B. subtilis,0.024 ± 0.002 µM
same,Times less effective than ciprofloxacin (MIC),B. subtilis,2.5 times
same,MBC,B. subtilis; [9],0.038 µM
same,MIC,B. subtilis; [10],0.024 µM
same,MIC,E. coli,0.054 ± 0.003 µM
same,MBC,E. coli; Escherichia coli,0.074 ± 0.006 µM
same,MIC,E. coli; [11],0.054 µM
same,MIC,C. albicans; C. albicans,18.20 ± 1 µM
same,MFC,C. albicans; Candida albicans,36.5 ± 2 µM
same,MIC,C. albicans; Candida albicans,18.2 µM
same,MIC,[2],3.40 ± 0.20 µM
same,MBC,[2]; Pseudomonas aeruginosa,5.8 ± 0.3 µM
same,MIC,[2]; [7],3.4 µM
same,"viability at 96 h, 50 µM",[4],93%
same,MBC,P. aeruginosa,0.074 ± 0.005 µM
same,MIC,P. aeruginosa,0.055 ± 0.004 µM
same,MBC,P. aeruginosa; [12],0.074 µM
same,MIC,P. aeruginosa; [13],0.055 µM
same,MIC,E. coli (ATCC BAA-196),1.90 ± 0.10 µM
same,MBC,E. coli (ATCC BAA-196); Escherichia coli,3.7 ± 0.2 µM
same,MIC,E. coli (ATCC BAA-196); [8],1.9 µM
same,MBC,Gram-positive bacteria,0.028 to 0.058 µM
same,Potency relative to novobiocin against DNA gyrase,E. coli DNA gyrase,twice as potent as novobiocin
same,IC50,E. coli DNA gyrase; read-out: IC50 E. Coli DNA gyrase,79 ± 5 nM
same,MIC,A. flavus,14.50 µM
same,MIC,A. flavus; listed as 6 h,14.50 ± 1 µM
same,MFC,A. flavus; Aspergillus flavus,28.5 ± 1 µM
same,MIC,A. flavus; Aspergillus flavus,14.5 to 19.5 µM

# Reference: publication PMC11590026, “Synthesis, enzyme inhibition, and docking studies of new schiff bases of disalicylic acid methylene-based derivatives as dual-target antibacterial agents” (Frontiers in Chemistry, 2024)
